From US20240368122A1, “JAK2 INHIBITORS AND METHODS OF USE THEREOF” (RELAY THERAPEUTICS, INC., priority 2021, published 2024) come the findings set out here.

The subject of test [1] is TF1 JAK2 V617F STAT5 reporter. As to the kind of experiment: Cellular TF1 STAT5 assay (luciferase reporter), JAK2 V617F. The format is cell-based. To be noted: read-out: Cell PD TF1 V617F STAT5 (IC50). In short, it runs like this: (§1)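 TF1 erythroleukemia cells expressing V617F JAK2 with a STAT3 or STAT5 luciferase reporter were seeded at 10,000 cells/well onto compound (10-point, 1:3 dilutions; 10 mM top stock at 1000×) and incubated 18-20 h at 37 °C, 5% CO2. Luminescence was read after ONE-glo addition, 10 min at room temperature.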

For test [2], the system named is TF1 JAK2 V617F STAT3 reporter. As to the kind of experiment: Cellular TF1 STAT3 assay (luciferase reporter), JAK2 V617F. It is filed as cell-based. To be noted: read-out: Cell PD-TF1 JAK2 V617F STAT3 (IC50). The gist of the method: as §1
In test [3] the target is T1, JAK2 JH2 WT (V536-D812) [W659A, W777A, F794H solubilizing mutations] (Homo sapiens, UniProt O60674, F794H/W659A/W777A).
T1 construct: **JAK2 JH2 WT (V536-D812) [W659A, W777A, F794H solubilizing mutations]; C-thrombin-avi-His6; thrombin cleavage site (C); His6 (C); purchased Biortus
T1 sequence (O60674 536-812 W659A/W777A/F794H): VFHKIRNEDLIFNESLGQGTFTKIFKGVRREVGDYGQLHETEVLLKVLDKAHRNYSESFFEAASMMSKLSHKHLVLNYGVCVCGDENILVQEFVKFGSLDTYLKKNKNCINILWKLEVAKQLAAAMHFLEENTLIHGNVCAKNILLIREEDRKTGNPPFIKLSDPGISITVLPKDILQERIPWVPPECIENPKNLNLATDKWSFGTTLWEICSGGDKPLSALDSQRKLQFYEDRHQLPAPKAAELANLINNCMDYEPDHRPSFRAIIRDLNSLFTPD
As to the kind of experiment: Surface Plasmon Resonance (SPR) binding assay, JAK2 JH2 domain. In short, it runs like this: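 Kinetics came from 1:1 fits of single-cycle runs at 20 °C: four 3-fold dilutions from 5 uM for JH1 or 500 nM for JH2, 60 s association, and 300 s or 1200 s dissociation respectively. Protein was freshly captured per compound in the presence of 10 uM stabilizer compound, with running buffer of pH 7.5 HEPES/NaCl/glycerol/DTT plus 2% DMSO.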

Where [4] appears, read: Homo sapiens, TF-1, TF1 cells, JAK2 V617F.

The structures appear in SMILES notation. Like-named read-outs stand apart in the source and are kept apart here.

Turning to `CNC(=O)c1nnc(NC(=O)C2CC2)cc1Nc1cccc(-c2ccc(C(=O)N(C)Cc3cn(C)nc3C(C)C)nc2)c1OC` [Compound 198], the IC50 in test [1] (setting [4]) and in test [2] (setting [4]) was 50 to 500 nM in each case. The Kd in test [3] fell in the range of 0.01 to 10 nM.

On to `CNC(=O)c1nnc(NC(=O)C2CC2)cc1Nc1cccc(-c2cnn(C3CN(Cc4cc([N+](=O)[O-])ccn4)C3)c2)c1OC` [Compound 295], for which the IC50 in test [1] (setting [4]) and in test [2] (setting [4]) was 50 to 500 nM throughout. Besides, the Kd in test [3] fell in the range of 0.01 to 10 nM.

`CNC(=O)c1nnc(NC(=O)C2CC2)cc1Nc1ccc(C)c(-c2ccc(C(=O)N(C)Cc3ncc(COC)s3)nc2)c1OC` [Compound 317]: the IC50 fell in the range of 50 to 500 nM in test [1] (setting [4]) and 500 to 5000 nM in test [2] (setting [4]). For the same compound, the Kd in test [3] lay in the range of 0.01 to 10 nM.

As to `CNC(=O)c1nnc(NC(=O)C2CC2)cc1Nc1cccc(-c2ccc(C(=O)N(C)Cc3ccon3)nc2)c1OC` [Compound 99], the IC50 in test [1] (TF1 JAK2 V617F) lay within 5000 to 100000 nM; in test [2] (TF1 JAK2 V617F) it was 500 to 5000 nM. For the same compound, in test [3] (SPR, JAK2 JH2 domain), the Kd fell in the range of 0.01 to 10 nM.

As for `CNC(=O)c1nnc(NC(=O)C2CC2)cc1Nc1cccc(-c2cn([C@H]3CN(Cc4cccc(C#N)n4)[C@@H]3C)nn2)c1OC` (stereo in doubt) [Compound 234], the IC50 in test [1] (setting [4]) and in test [2] (setting [4]) was 50 to 500 nM in each case. Moreover, the Kd in test [3] was 0.01 to 10 nM.

As to `CNC(=O)c1nnc(NC(=O)C2CC2)cc1Nc1cccc(-c2ccc(C(=O)N(C)Cc3cnc(C)s3)nc2)c1OC` [Compound 211], the IC50 in test [1] (setting [4]) lay in the range of 500 to 5000 nM; in test [2] (setting [4]), 5000 to 100000 nM. The Kd in test [3] is 0.01 to 10 nM.

In the case of `CNC(=O)c1nnc(NC(=O)C2CC2)cc1Nc1cccc(-c2cnn(C3CN(Cc4cccc(C(=O)N(C)C)n4)C3)c2)c1OC` [Compound 275], the IC50 in test [1] (setting [4]) and in test [2] (setting [4]) was 10 to 50 nM each time. The compound further gave a Kd in test [3] of 0.01 to 10 nM.

In the case of `CNC(=O)c1nnc(NC(=O)C2CC2)cc1Nc1cccc(-c2ccc(C(=O)N(C)Cc3cnn(C)c3C)nc2)c1OC` [Compound 166], the IC50 in test [1] (TF1 JAK2 V617F) and in test [2] (TF1 JAK2 V617F) was 500 to 5000 nM in each case. The same compound displayed a Kd in test [3] (SPR, JAK2 JH2 domain) of 0.01 to 10 nM.

Consider `CNC(=O)c1nnc(NC(=O)C2CC2)cc1Nc1cccc(-c2cnn(C3CN(Cc4cccc(C(=O)O)n4)C3)c2)c1OC` [Compound 312], for which the IC50 in test [1] (setting [4]) and in test [2] (setting [4]) was 5000 to 100000 nM in each case. In test [3], the Kd is 0.01 to 10 nM.

As to `COc1c(Nc2cc(NC(=O)C3CC3)nnc2-c2ncc[nH]2)ccc(C)c1-c1ccc(C(=O)N(C)Cc2cc(C#N)ccn2)nc1` [Compound 371], the IC50 in test [1] (setting [4]) and in test [2] (setting [4]) was 50 to 500 nM in each case. This compound also gave a dissociation constant Kd in test [3] of 0.01 to 10 nM.

Turning to `CNC(=O)c1nnc(NC(=O)C2CC2)cc1Nc1cccc(-c2ccc(C(=O)N(C)Cc3ccn(C)n3)nn2)c1OC` [Compound 76], the IC50 in test [1] (TF1 JAK2 V617F) and in test [2] (TF1 JAK2 V617F) was 500 to 5000 nM in each case. Further, in test [3] (SPR, JAK2 JH2 domain), the Kd was in the range of 0.01 to 10 nM.

Regarding `CNC(=O)c1nnc(NC(=O)C2CC2)cc1Nc1cccc(-c2cnn(C3CN(Cc4cccc(C(=O)N5CCC5)n4)C3)c2)c1OC` [Compound 355], the IC50 in test [1] (setting [4]) is 10 to 50 nM; in test [2] (setting [4]) it was 50 to 500 nM. In test [3], this compound returned a Kd of 0.01 to 10 nM.

For `CNC(=O)c1nnc(NC(=O)C2CC2)cc1Nc1cccc(-c2ccc(C(=O)N(C)Cc3ccc(F)cc3)cc2)c1OC` [Compound 95], the IC50 in test [1] (TF1 JAK2 V617F) and in test [2] (TF1 JAK2 V617F) was 5000 to 100000 nM throughout. Moreover, the Kd in test [3] (SPR, JAK2 JH2 domain) was in the range of 10 to 50 nM.

With `CNC(=O)c1nnc(NC(=O)C2CC2)cc1Nc1cccc(-c2cnn(C3CN(Cc4ccccc4)C3)c2)c1OC` [Compound 130], the IC50 in test [1] (TF1 JAK2 V617F) and in test [2] (TF1 JAK2 V617F) was 500 to 5000 nM throughout. In test [3] (SPR, JAK2 JH2 domain), the Kd lay within 0.01 to 10 nM.

On to `CNC(=O)c1nnc(NC(=O)C2CC2)cc1Nc1cccc(-c2cnn(C3CN(Cc4cccc(C#CCN)n4)C3)c2)c1OC` [Compound 265], for which the IC50 in test [1] (setting [4]) and in test [2] (setting [4]) was 500 to 5000 nM throughout. In test [3], the Kd was 0.01 to 10 nM.

For `CNC(=O)c1nnc(NC(=O)C2CC2)cc1Nc1cccc(-c2cnc(C3CN(Cc4cccn(C)c4=O)C3)nc2)c1OC` [Compound 326], the IC50 in test [1] (setting [4]) and in test [2] (setting [4]) was 5000 to 100000 nM each time. Also, the Kd in test [3] was in the range of 10 to 50 nM.

`CNC(=O)c1nnc(NC(=O)C2CC2)cc1Nc1cccc(-c2ccc(C3CN(Cc4cccc(C(F)(F)F)n4)C3)nc2)c1OC` [Compound 391]: the figures for the IC50 in test [1] (setting [4]) and in test [2] (setting [4]) were 500 to 5000 nM and 5000 to 100000 nM, respectively. In test [3], the Kd lay within 10 to 50 nM.

On to `CNC(=O)c1nnc(NC(=O)C2CC2)cc1Nc1cccc(-c2ccc(C(=O)N(C)Cc3cn(C4CC4)nc3C)nc2)c1OC` [Compound 285], for which the IC50 in test [1] (setting [4]) and in test [2] (setting [4]) was 500 to 5000 nM throughout. Further, the Kd in test [3] was 0.01 to 10 nM.

For the compound `CNC(=O)c1nnc(NC(=O)C2CC2)cc1Nc1cccc(-c2cnn(C3CC(C(O)c4ccccn4)C3)c2)c1OC` (stereo not drawn) [Compound 370], the IC50 in test [1] (setting [4]) and in test [2] (setting [4]) was 500 to 5000 nM each time. This compound also showed a Kd in test [3] of 0.01 to 10 nM.

Consider `CNC(=O)c1nnc(NC(=O)C2CC2)cc1Nc1cccc(-c2ccc(C(=O)N(C)Cc3cc(C#N)n(C)n3)nc2)c1OC` [Compound 71], for which the IC50 in test [1] (TF1 JAK2 V617F) and in test [2] (TF1 JAK2 V617F) was 50 to 500 nM throughout. The compound also registered a Kd in test [3] (SPR, JAK2 JH2 domain) of 0.01 to 10 nM.

With `CNC(=O)c1nnc(NC(=O)C2CC2)cc1Nc1ccc(C)c(-c2cc(C3CCN(Cc4cc(C#N)ccn4)CC3)n(C)n2)c1OC` [Compound 186], the IC50 in test [1] (TF1 JAK2 V617F) and in test [2] (TF1 JAK2 V617F) was 5000 to 100000 nM in each case. In addition, the Kd in test [3] (SPR, JAK2 JH2 domain) is 50 to 500 nM.

`CNC(=O)c1nnc(NC(=O)C2CC2)cc1Nc1cccc(-c2ccc(C(=O)N(C)Cc3cc(C#N)ccn3)c(C#N)c2)c1OC` [Compound 118]: the IC50 in test [1] (TF1 JAK2 V617F) and in test [2] (TF1 JAK2 V617F) was 500 to 5000 nM in each case. This compound returned a dissociation constant Kd in test [3] (SPR, JAK2 JH2 domain) of 0.01 to 10 nM.

For the compound `CNC(=O)c1nnc(NC(=O)C2CC2)cc1Nc1cccc(-c2cnn(C3CN(Cc4cccc(C(C)(C)CO)n4)C3)c2)c1OC` [Compound 300], the IC50 in test [1] (setting [4]) and in test [2] (setting [4]) was 50 to 500 nM throughout. The same compound yielded a Kd in test [3] of 0.01 to 10 nM.

As for `CNC(=O)c1nnc(NC(=O)C2CC2)cc1Nc1cccc(-c2ccc(C(=O)N(C)Cc3nccc(C#N)c3F)nc2)c1OC` [Compound 154], the IC50 in test [1] (TF1 JAK2 V617F) and in test [2] (TF1 JAK2 V617F) was 5000 to 100000 nM in each case. Also, in test [3] (SPR, JAK2 JH2 domain), the Kd fell in the range of 0.01 to 10 nM.

Take `CNC(=O)c1nnc(NC(=O)C2CC2)cc1Nc1cccc(-c2cnn(C3CN(Cc4cccn5ccnc45)C3)c2)c1OC` [Compound 373]: the IC50 in test [1] (setting [4]) and in test [2] (setting [4]) was 50 to 500 nM throughout. The compound further yielded a Kd in test [3] of 0.01 to 10 nM.

Turning to `CNC(=O)c1nnc(NC(=O)C2CC2)cc1Nc1cccc(-c2cnn([C@H]3C[C@H]([C@@H](O)c4ccccn4)C3)c2)c1OC` (single isomer, unassigned) [Compound 396], the IC50 in test [1] (setting [4]) and in test [2] (setting [4]) was 500 to 5000 nM throughout. For the same compound, the Kd in test [3] (SPR, JAK2 JH2 domain) lay within 0.01 to 10 nM.

`CNC(=O)c1nnc(NC(=O)C2CC2)cc1Nc1cccc(-c2ccc(C3CN(Cc4ccccn4)C3)nc2)c1OC` [Compound 182]: the IC50 is 500 to 5000 nM in test [1] (TF1 JAK2 V617F) and 5000 to 100000 nM in test [2] (TF1 JAK2 V617F). This compound also displayed a Kd in test [3] (SPR, JAK2 JH2 domain) of 0.01 to 10 nM.

For `CNC(=O)c1nnc(NC(=O)C2CC2)cc1Nc1cccc(-c2cnn(C3CN(Cc4cccc(Br)n4)C3)c2)c1OC` [Compound 201], the IC50 in test [1] (setting [4]) and in test [2] (setting [4]) was 50 to 500 nM in each case. The Kd in test [3] fell in the range of 0.01 to 10 nM.

As for `CNC(=O)c1nnc(NC(=O)C2CC2)cc1Nc1cccc(-c2cnn([C@H]3CCN(Cc4cccc(C#N)n4)C3)c2)c1OC` [Compound 319], the IC50 in test [1] (setting [4]) and in test [2] (setting [4]) was 50 to 500 nM each time. This compound also gave a Kd in test [3] of 0.01 to 10 nM.
